What all share (format): cell-based
Assay [1] has as its system CHO GAL4/Elk-1 reporter cell line. The assay can be described thus: GAL4/Elk-1 luciferase reporter assay in host CHO cells (reporter only), with and without pertussis toxin. From the text:
(§1) To further test the coupling of GPR40 to Gαi/Gαq a Gal4/Elk-1 reporter was used. A stable, clonal reporter line was created by transfecting CHO cells with a plasmid that contains an expression construct for GAL4/Elk-1 and a GAL4-luciferase reporter construct. A similar reporter system can now be purchased from Stratagene (under the trademark […]®). An expression construct for human GPR40 which contains a G418 resistance construct was transfected into the host CHO GAL4/Elk-1 reporter cell line (10ug plasmid DNA pCR3-GPR40) via electroporation. The cell lines were selected for with 500ug/mL G418 until all cells in the control were dead and clones were then picked. The Gal4/Elk-1 reporter can be activated through Gq or Gi. To confirm coupling via Gi, cells were treated with pertussis toxin treatment which ADP-ribosylates Gαi preventing its interaction with receptors (Bokoch et al., J. Biol. Chem 258:2072 (1983)). Pertussis toxin has no known effect on Gαq.
(§2) Host cells and those transfected with the GPR40 construct were plated in a 96-well tissue culture plate at 2000 cells/well in DMEM/F12 supplemented with 5% FBS. After 48 hours at 37°C at 5% CO2 the cells were placed in serum-free DMEM/F12 in the presence or absence of 1ug/ml pertussis toxin. […]

Assay [2] has as its target T1, human GPR40 (Homo sapiens, UniProt O14842). The assay can be described thus: FLIPR intracellular calcium assay in HEK-293 cells transiently expressing GPR40 (with G-protein cocktail). The conditions noted are these: for pEC50 / EC50: Additional Fatty Acid Compounds. From the text:
The Fluorometric Imaging Plate Reader (FLIPR™, Molecular Devices, UK) measures intracellular fluorescense in multi-well microplates. Where a GPCR couples to a calcium signalling pathway, the FLIPR system can be used with cells expressing the G-protein coupled receptor and containing calcium-sensitive fluorescent dyes, to monitor the intracellular calcium flux that occurs after activation of the G-coupled receptor. See, e.g., Kirk et al., J. Biomolecular Screening, 1:75 (1996).
(§3) The assays utilized a G-protein cocktail (+GPC) that contained chimeric and promiscuous G-proteins, as is known in the art of screening orphan G-protein coupled receptors.

The target in assay [3] is T1, human GPR40. The assay can be described thus: 3X-CRE-luciferase reporter assay in CHO cells (Gs coupling). On the set-up: expressed in transfected cells; host or cells: wild-type CHO cells, transient co-transfection (CMV-GPR40 + 3x-CRE-Luc). The conditions noted are these: CRE-Luc; cells containing reporter only and cells containing GPR40; 4 hours of treatment; Figure 3c. Here is the method: Specific coupling was determined in mammalian cells using transient expression of a CRE-luciferase reporter for Gαs and stable cell-lines containing Gal4/ELK-1-luciferase reporter for Gαq/Gαi. Wild-type CHO cells were co-transfected with 3X-CRE-luciferase reporter vector and various amounts of an expression vector for GPR40. The control cells were transfected with reporter vector only. The reporter gene plasmids were produced in house but similar vectors can be purchased from Stratagene ([…]®). Cells were plated in a 24 well tissue culture plate at 1 x 10^4 cells/well in DMEM/F12 supplemented with 5% FBS. After 72 hours at 37°C, 5% CO2, the cells were transfected using the liposomal transfection reagent sold under the trademark LIPOFECTAMINE® and with the following combinations of plasmids: • A- 3x-CRE-Luc • B- 3x-CRE-Luc + CMV-GPR40 • C- 3x-CRE-Luc + CMV-Gs coupled receptor The concentration of reporter plasmid for all wells was 0.15µg/well. Concentrations of receptor plasmids were 0.5, 1.0, 5.0, 10.0 ng/well. After 24hrs Cells containing 1ng/well of receptor plasmid or no DNA control and CRE-Luc reporter were treated with fatty acid or the calcitonin which is known to act through a Gs-coupled receptor (Chakraborty, Science 251: 1078 (1991)) at concentrations indicated. […]

The target in assay [4] is T1, human GPR40. Kind of assay: GAL4/Elk-1 luciferase reporter assay in CHO clones transfected with human GPR40, with and without pertussis toxin. On the set-up: expressed in transfected cells; host or cells: wild-type CHO cells, transient co-transfection (CMV-GPR40 + 3x-CRE-Luc). The conditions noted are these: cells containing GPR40, Figure 4B.
From the text: as §1, §2

The next assay has as its system HLTEX11. Kind of assay: FLIPR intracellular calcium assay in HEK-293 cells transiently expressing control 7TM receptor HLTEX11. The conditions noted are these: HEK-293 cells transiently expressing HLTEX11; Figure 1.
From the text: as §3

Another assay deals with PGRW. Kind of assay: FLIPR intracellular calcium assay in HEK-293 cells transiently expressing control 7TM receptor PGRW. The conditions noted are these: HEK-293 cells transiently expressing PGRW; Figure 1.
From the text: as §3

T1 sequence (O14842 whole entry): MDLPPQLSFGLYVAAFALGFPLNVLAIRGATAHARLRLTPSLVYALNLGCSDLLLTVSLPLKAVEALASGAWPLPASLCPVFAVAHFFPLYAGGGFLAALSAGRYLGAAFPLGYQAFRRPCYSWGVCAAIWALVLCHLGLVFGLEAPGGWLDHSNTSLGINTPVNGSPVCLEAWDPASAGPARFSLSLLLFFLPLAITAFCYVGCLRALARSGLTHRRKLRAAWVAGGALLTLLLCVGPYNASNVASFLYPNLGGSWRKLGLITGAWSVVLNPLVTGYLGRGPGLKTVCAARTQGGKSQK

Turning to `CCCCCCCCC#CCC#CCC#CCCCC(=O)O` [5,8,11-Eicosatriynoic acid], the luciferase production result (in assay [1] (Figure 4B); at human GPR40 [3]) was “no effect” each time. For the same compound, the pEC50 at human GPR40 [2] (FLIPR) is given as 5.77. The “effect of pertussis toxin treatment on the stimulated luciferase activity” value at human GPR40 [4] (1ug/ml pertussis toxin) is listed as “not inhibited”. In addition, the “luciferase activity compared to basal” value on human GPR40 [4] was “increased”. With `CCCCC[C@H](O)[C@H](O)/C=C/C=C/C=C\C/C=C\CCCC(=O)O` [14®, 15(S)-DiHETE], on human GPR40 [2] (FLIPR), the EC50 was determined as 23.4 µM and the pEC50 stood at 4.63. As for `C#CCCCCCCCCCCCCCCCC(=O)O` [17-Octadecynoic acid], at human GPR40 [2] (FLIPR), the pEC50 is recorded as 5.12. Turning to `CCCCC/C=C\C/C=C\C/C=C\C/C=C\CCCCCC(=O)O` [Adrenic acid], at human GPR40 [2] (FLIPR), the EC50 stood at 13.5 µM and the pEC50 turned out to be 4.87. On to `CC1=C(/C=C/C(C)=C/C=C/C(C)=C/C=O)C(C)(C)CCC1` [All-trans-retinal], for which, at human GPR40 [2] (mean over experiments (n=1 or n=2 where printed), FLIPR), the “Mean pEC50 of 3 expts” value came out at 4.16. Take `CCCCC/C=C\C/C=C\C/C=C\C/C=C\CCCC(=O)O` [Arachidonic acid]: at human GPR40 [2] (FLIPR), the pEC50 worked out at 5.04.

Consider `CCCCC/C=C\C/C=C\C/C=C\CCCCCCC(=O)O` [Dihomo-gamma-linolenic acid], for which, on human GPR40 [2] (FLIPR), the pEC50 stood at 5.14. On the same count and under the same terms, the result for `CC/C=C\C/C=C\C/C=C\C/C=C\C/C=C\CCCCCC(=O)O` [Docosa-7Z,10Z,13Z,16Z,19Z-pentaenoic acid] reads 5.33; that for `CC/C=C\C/C=C\C/C=C\CCCCCCCCCCCC(=O)O` [Docosa-13Z,16Z,19Z-trienoic acid], 5.17. On the same count and under the same terms, the result for `CC/C=C\C/C=C\C/C=C\C/C=C\C/C=C\CCCC(=O)O` [Eicosa-5Z,8Z,11Z,14Z,17Z-pentaenoic acid] reads 5.17; that for `CCCCCCCCCCC/C=C\C/C=C\CCCC(=O)O` [Eicosa-5Z,8Z-dienoic acid], 5.11. On the same count and under the same terms, the result for `CC/C=C\C/C=C\C/C=C\CCCCCCCCCC(=O)O` [Eicosa-11Z,14Z,17Z-trienoic acid] reads 4.95; that for `CCCCC/C=C\C/C=C\CCCCCCCCCC(=O)O` [Eicosa-11Z,14Z-dienoic acid], 4.97. Consider `CCCCCCCC/C=C/CCCCCCCC(=O)O` [Elaidic acid], for which the FLIPR response entry with HLTEX11 and with PGRW was “No response” throughout. In addition, the pEC50 on human GPR40 [2] (FLIPR) is recorded as 4.87. Also, at human GPR40 [2] (HEK-293 cells transiently expressing GPR40, +GPC, Figure 1), the “FLIPR response (intracellular calcium levels)” value was “response detected”. For `CCCCCCCC/C=C\CCCCCCCC(=O)OC[C@@H](O)COP(=O)(O)O` [LPA, lysophosphatidic acid (oleoyl)], in assay [1] (1ug/ml pertussis toxin, Figures 4A, 4C), the “agonist-stimulated reporter activity following pertussis toxin treatment” value is reported as “completely abolished”.

With `CCCCC/C=C\C/C=C\CCCCCCCC(=O)O` [Linoleic acid], on human GPR40 [2] (FLIPR), the pEC50 came to 5.02. As for `CCCCCCCC/C=C\C/C=C\C/C=C\CCCC(=O)O` [Mean acid], on human GPR40 [2] (FLIPR), the EC50 was determined as 2.51 µM and the pEC50 is on record as 5.60. `CCC=CCC=CCC=CCC=CCC=CC/C=C\CCC(=O)O` [cis-4,7,10,13,16,19-Docosahexaenoic acid]: at human GPR40 [2] (FLIPR), the pEC50 is given as 5.79. Turning to calcitonin, in the assay with human GPR40 [3], the luciferase production entry is recorded as “increase”.
